From patent US20240336611A1 (Insilico Medicine IP Limited, priority 2021, published 2024) come the findings set out here.

Molecules are shown by their SMILES. pIC50: −log10 of the molar value.

T1 sequence (Q9UKE5 1-367): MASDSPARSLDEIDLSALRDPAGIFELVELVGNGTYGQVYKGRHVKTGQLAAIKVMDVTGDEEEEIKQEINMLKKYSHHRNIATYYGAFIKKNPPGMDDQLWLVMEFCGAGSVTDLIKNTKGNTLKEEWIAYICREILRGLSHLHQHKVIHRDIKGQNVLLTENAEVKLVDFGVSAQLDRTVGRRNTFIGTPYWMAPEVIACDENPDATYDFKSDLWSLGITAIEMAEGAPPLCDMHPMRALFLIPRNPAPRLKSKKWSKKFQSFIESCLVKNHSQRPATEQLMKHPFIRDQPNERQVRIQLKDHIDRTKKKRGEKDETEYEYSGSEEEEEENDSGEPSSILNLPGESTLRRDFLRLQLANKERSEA

This assay concerns the target T1, TNIK kinase [amino acid sequence (1-367), Invitrogen] (Homo sapiens, UniProt Q9UKE5).
T1 construct: purchased Invitrogen
The experiment in a line: TNIK kinase inhibition assay (Z-lyte FRET-peptide). Particulars: 0.625 nM TNIK kinase, 2 μM Ser/Thr 7 peptide, 64 μM ATP, one hour at room temperature. The format is biochemical. The method, then:
Z-lyte assay kit was purchased from Invitrogen. A site-specific protease recognizes and cleaves non-phosphorylated FRET-peptides. Phosphorylation of FRET-peptides suppresses cleavage by protease and will maintain FRET from donor to acceptor.
5 μl of Development Reagent A solution was then added to cleave non-phosphorylated peptide with a dilution 1:65000 in Development Buffer B. The assay plate was incubated at room temperature for another one hour and then read in the Envision plate reader (PerkinElmer).
Consider `O=C(Nc1ccc(C2COC2)cc1F)c1coc(-c2c(-c3ccc(F)cc3)ncn2C2COC2)n1` [Compound 80, N-(2-fluoro-4-(oxetan-3-yl)phenyl)-2-(4-(4-fluorophenyl)-1-(oxetan-3-yl)-1H-imidazol-5-yl)oxazole-4-carboxamide], for which the pIC50 (commonly −log10 of the IC50, conventionally taken in molar units) is 6.82 to 7.92. With `CN1C2CC1CN(c1ccc(NC(=O)c3c[nH]c(-c4c(-c5ccc(F)cc5)ncn4C4CC4)n3)nc1)C2` [Compound 49, 3′-cyclopropyl-5′-(4-fluorophenyl)-N-(5-(6-methyl-3,6-diazabicyclo[3.1.1]heptan-3-yl)pyridin-2-yl)-1H,3′H-[2,4′-biimidazole]-4-carboxamide], the pIC50 was 6.82 to 7.92. For the compound `CC(C)c1onc(-c2ccc(F)cc2)c1-c1nc(C(=O)Nc2ccc(C3CN(C)C3)cc2F)co1` [Compound 106, N-(2-fluoro-4-(1-methylazetidin-3-yl)phenyl)-2-(3-(4-fluorophenyl)-5-isopropylisoxazol-4-yl)oxazole-4-carboxamide], the pIC50 is 6.82 to 7.92. In turn, `CN1C2CC1CN(c1ccc(NC(=O)c3coc(-c4c(-c5ccc(F)cc5)ncn4C4CC(F)(F)C4)n3)c(F)c1)C2` [Compound 103, 2-(1-(3,3-difluorocyclobutyl)-4-(4-fluorophenyl)-1H-imidazol-5-yl)-N-(2-fluoro-4-(6-methyl-3,6-diazabicyclo[3.1.1]heptan-3-yl)phenyl)oxazole-4-carboxamide] had a pIC50 of 7.92 to 9.00. For the compound `[2H]C([2H])([2H])N1CC(c2ccc(NC(=O)c3csc(-c4c(C(C)C)cnn4-c4ccc(F)cc4)n3)nc2)C1` [Compound 116, 2-(1-(4-fluorophenyl)-4-isopropyl-1H-pyrazol-5-yl)-N-(5-(1-(trideuteriomethyl)azetidin-3-yl)pyridin-2-yl)thiazole-4-carboxamide], the negative-log IC50 (pIC50) is 7.92 to 9.00. Regarding `[2H]C([2H])([2H])N1CC(c2ccc(NC(=O)c3coc(-c4c(-c5ccc(F)cc5)ncn4C([2H])(C)C)n3)nc2)C1` [Compound 111], the pIC50 was 6.82 to 7.92. As to `CN1C2CCC1CN(c1ccc(NC(=O)c3c[nH]c(-c4c(-c5ccc(F)cc5)ncn4C4CC4)n3)nc1)C2` [Compound 47, 3′-cyclopropyl-5′-(4-fluorophenyl)-N-(5-(8-methyl-3,8-diazabicyclo[3.2.1]octan-3-yl)pyridin-2-yl)-1H,3′H-[2,4′-biimidazole]-4-carboxamide], the negative logarithm of the IC50 (pIC50) is 7.92 to 9.00. On to `CC(C)n1cnc(-c2ccc(F)cc2)c1-c1nc(C(=O)Nc2ccc(C3CN(C)C3)cc2F)co1` [Compound 101, N-(2-fluoro-4-(1-methylazetidin-3-yl)phenyl)-2-(4-(4-fluorophenyl)-1-isopropyl-1H-imidazol-5-yl)oxazole-4-carboxamide], for which the pIC50 is 7.92 to 9.00. Consider `O=C(Nc1ccc(N2CCCC2)cn1)c1c[nH]c(-c2c(-c3ccc(F)cc3)ncn2C2CC(F)(F)C2)n1` [Compound 76, 3′-(3,3-difluorocyclobutyl)-5′-(4-fluorophenyl)-N-(5-(pyrrolidin-1-yl)pyridin-2-yl)-1H,3′H-[2,4′-biimidazole]-4-carboxamide], for which the pIC50 was 6.82 to 7.92. With `CC(C)n1cnc(-c2ccc(F)cc2)c1-c1csc(C(=O)Nc2ccc(N3CCN(C)CC3)cc2)n1` [Compound 4, 4-(4-(4-fluorophenyl)-1-isopropyl-1H-imidazol-5-yl)-N-(4-(4-methylpiperazin-1-yl)phenyl)thiazole-2-carboxamide], the pIC50 is 7.92 to 9.00.

As for `CC(C)c1noc(-c2ccc(F)cc2)c1-c1nc(C(=O)Nc2ccc(C3CN(C)C3)cn2)cs1` [Compound 89, 2-(5-(4-fluorophenyl)-3-isopropylisoxazol-4-yl)-N-(5-(1-methylazetidin-3-yl)pyridin-2-yl)thiazole-4-carboxamide], the pIC50 is 6.82 to 7.92. `CC(C)c1onc(-c2ccc(F)cc2)c1-c1nc(C(=O)Nc2ccc(N3CC4CC(C3)N4C)cc2F)co1` [Compound 105, N-(2-fluoro-4-(6-methyl-3,6-diazabicyclo[3.1.1]heptan-3-yl)phenyl)-2-(3-(4-fluorophenyl)-5-isopropylisoxazol-4-yl)oxazole-4-carboxamide] gave a pIC50 of 6.82 to 7.92.
